From patent publication US9199943B2, “2-(poly-substituted aryl)-6-amino-5-halo-4-pyrimidinecarboxylic acids and their use as herbicides” (Dow AgroSciences, LLC., priority 2006, dated 2015)

Assays:
[1] = test system: CHEAL = lambsquarter (Chenopodium album); test: General preemergence herbicidal activity, lambsquarter; format: in vivo; conditions: Chenopodium album, pre-emergence, 480 h, pre-emergent, visual score after 20-22 days; for pest or weed control at 140 g/ha: 140 g ai/ha
Text: (§1) Seeds of the desired test plant species were planted in a soil matrix prepared by mixing a loam soil (43 percent silt, 19 percent clay, and 38 percent sand, with a pH of about 8.1 and an organic matter content of about 1.5 percent) and sand in a 70 to 30 ratio. The soil matrix was contained in plastic pots with a surface area of 113 square centimeters. When required to ensure good germination and healthy plants, a fungicide treatment and/or other chemical or physical treatment was applied. A weighed amount, determined by the highest rate to be tested, of each test compound was placed in a 25 mL glass vial and was dissolved in 6 mL of a 97:3 v/v (volume/volume) mixture of acetone and DMSO to obtain concentrated stock solutions. […] The stock solutions obtained were diluted with 18 mL of a 0.1% v/v aqueous solution of Tween® 20 surfactant to obtain spray solutions containing the highest application rate. Additional application rates were obtained by serial dilution of 12 mL of the high rate solution into a solution containing 3 mL of 97:3 v/v mixture of acetone and DMSO and 9 mL of the 0.1% v/v aqueous solution of Tween® 20 surfactant to obtain 1⁄2×, 1⁄4×, 1⁄8× and 1/16× rates of the high rate. Compound requirements are based upon a 12 mL application volume at a rate of 187 L/ha. Formulated compounds were applied to the plant material with an overhead Mandel track sprayer equipped with a […] nozzles calibrated to deliver 187 L/ha over an application area of 0.503 square meters at a spray height of 18 inches (43 cm) above the soil surface. Control plants were sprayed in the same manner with the solvent blank. The treated pots and control pots were placed in a greenhouse maintained with an approximate 15 hour photoperiod and temperatures of about 23-29° C. during the day and 22-28° C. during the night. Nutrients and water were added on a regular basis and supplemental lighting was provided with overhead metal halide 1000-Watt lamps as necessary. The water was added by top-irrigation. After 20-22 days, the condition of the test plants that germinated and grew as compared with that of the untreated plants that emerged and grew was determined visually and scored on a scale of 0 to 100 percent where 0 corresponds to no injury and 100 corresponds to complete kill or no emergence.

[2] = test system: ABUTH = velvetleaf (Abutilon theophrasti); test: General preemergence herbicidal activity, velvetleaf; format: in vivo; conditions: Abutilon theophrasti, pre-emergence, 480 h, pre-emergent, visual score after 20-22 days; for pest or weed control at 140 g/ha: 140 g ai/ha
Text: as §1

[3] = test system: HELAN = sunflower (Helianthus annuus); test: General preemergence herbicidal activity, sunflower; format: in vivo; conditions: Helianthus annuus, pre-emergence, 480 h, pre-emergent, visual score after 20-22 days; for pest or weed control at 140 g/ha: 140 g ai/ha
Text: as §1

SMILES | pest or weed control at 140 g/ha [1] | pest or weed control at 140 g/ha [2] | pest or weed control at 140 g/ha [3] | melting point | pest or weed control at 280 g/ha ([1]; 280 g ai/ha) | pest or weed control at 280 g/ha ([2]; 280 g ai/ha) | pest or weed control at 280 g/ha ([3]; 280 g ai/ha)
COC(=O)c1nc(-c2c(F)cc(Cl)c(OC)c2F)nc(N)c1Cl [Compound 2, 6-amino-5-chloro-2-(4-chloro-2,6-difluoro-3-methoxy-phenyl)pyrimidine-4-carboxylic acid methyl ester] | 90% | 100% | 20% |  |  |  | 
COC(=O)c1nc(-c2ccc(Cl)c(OC)c2Cl)nc(N)c1Cl [Compound 6, 6-Amino-5-chloro-2-(2,4-dichloro-3-methoxyphenyl)pyrimidine-4-carboxylic acid methyl ester] | 100% | 60% | 90% |  |  |  | 
COC(=O)c1nc(-c2ccc(Cl)c(C(F)F)c2F)nc(N)c1Cl [Compound 7, 6-Amino-5-chloro-2-(4-chloro-3-difluoromethyl-2-fluorophenyl)pyrimidine-4-carboxylic acid methyl ester] | 70% | 75% | 90% | 155 to 157 °C |  |  | 
COC(=O)c1nc(-c2ccc(Cl)c(N(C)C)c2F)nc(N)c1Cl [Compound 8, 6-Amino-5-chloro-2-(4-chloro-3-dimethylamino-2-fluorophenyl)pyrimidine-4-carboxylic acid methyl ester] |  |  |  | 143 to 144 °C |  |  | 
COC(=O)c1nc(-c2ccc(Cl)c(OCC(F)F)c2F)nc(N)c1Cl [Compound 10, 6-Amino-5-chloro-2-[4-chloro-3-(2,2-difluoroethoxy)-2-fluorophenyl]-pyrimidine-4-carboxylic acid methyl ester] |  |  |  | 139 to 141 °C | 60% | 80% | 0%
